# Patent US10597388B2, “Pyridazinone herbicides” (FMC CORPORATION, priority 2014, dated 2020)
# Legend:
# Type in all cases: in vivo
# [1] = test system: ryegrass, Italian (Italian ryegrass, Lolium multiflorum); assay: Test A greenhouse herbicide test, pre- and postemergence
# Outline: (§1)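 Seeds sown in loam–sand blend got a preemergence directed soil spray of compound in non-phytotoxic solvent with surfactant. Postemergence treatment was given at 2–10 cm, one- to two-leaf stage. After ~10 d in greenhouse, injury was rated visually vs untreated controls, 0 (no effect) to 100 (complete control).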
# kochia (Kochia scoparia) = assay: as above
# Outline: as §1
# [2] = test system: foxtail, giant (giant foxtail, Setaria faberii); assay: as above
# Outline: as §1
# [3] = test system: ragweed (common ragweed, Ambrosia elatior); assay: as above
# Outline: as §1
# [4] = test system: wheat (Triticum aestivum); assay: as above; conditions: Postemergence; for Wheat plant response rating: 0 to 100 scale, 0 is no effect, 100 is complete control; for Plant response rating, Wheat: 125 g ai/ha, 0 to 100 scale where 0 is no effect and 100 is complete control
# Outline: as §1
# corn (Zea mays) = assay: as above; conditions: Postemergence; for Corn plant response rating: 0 to 100 scale, 0 is no effect, 100 is complete control; for Plant response rating, Corn: 125 g ai/ha, 0 to 100 scale where 0 is no effect and 100 is complete control
# Outline: as §1
# [5] = test system: ryegrass, Italian (Italian ryegrass, Lolium multiflorum); assay: Test C greenhouse herbicide test, pre- and postemergence
# Outline: (§2)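 Two application timings: at sowing into a soil/sand blend, and on 2–18 cm seedlings in peat-vermiculite potting mix. A non-phytotoxic, surfactant-containing solvent carried the compounds. Plants were compared with controls and rated visually on 0–100 after 13–15 d.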
# soybean (Glycine max) = assay: as above
# Outline: as §2
# [6] = test system: ragweed (common ragweed, Ambrosia elatior); assay: as above
# Outline: as §2
# [7] = test system: galium (catchweed bedstraw, Galium aparine); assay: as above
# Outline: as §2
# [8] = test system: blackgrass (Alopecurus myosuroides); assay: Test A greenhouse herbicide test, postemergence; conditions: for Blackgrass plant response rating: 0 to 100 scale, 0 is no effect, 100 is complete control; for Plant response rating, Blackgrass: 125 g ai/ha, 0 to 100 scale where 0 is no effect and 100 is complete control
# Outline: (§3)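 Greenhouse postemergence test: formulated chemicals sprayed on one- to two-leaf plants (2 to 10 cm), grown in loam soil blended with sand. Injury assessed visually about 10 d later against untreated controls, scored 0 (no effect) to 100 (complete control).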
# [9] = test system: galium (catchweed bedstraw, Galium aparine); assay: Test A greenhouse herbicide test, postemergence; conditions: for Galium plant response rating: 0 to 100 scale, 0 is no effect, 100 is complete control; for Plant response rating, Galium: 125 g ai/ha, 0 to 100 scale where 0 is no effect and 100 is complete control
# Outline: as §3
# [10] = Postemergence, 1000 g ai/ha, 0 to 100 scale, 0 is no effect, 100 is complete control
# [11] = Preemergence, 1000 g ai/ha, 0 to 100 scale, 0 no effect, 100 complete control
# [12] = Postemergence, 31 g ai/ha, 0 to 100 scale (0 no effect, 100 complete control)
# [13] = Postemergence, 125 g ai/ha, scale 0 to 100, 0 is no effect, 100 is complete control
# [14] = Postemergence, 250 g ai/ha, scale 0 to 100, 0 no effect, 100 complete control, 13 to 15 d
# [15] = Preemergence, 31 g ai/ha, scale 0 to 100, 0 is no effect, 100 is complete control
# [16] = Preemergence, 62 g ai/ha, scale 0 to 100, 0 is no effect, 100 is complete control
# [17] = Preemergence, 125 g ai/ha, scale 0 to 100, 0 is no effect, 100 is complete control
# [18] = Preemergence, 250 g ai/ha, scale 0 to 100 (0 no effect, 100 complete control)
# [19] = postemergence, 62 g ai/ha, scale 0 to 100, 0 no effect, 100 complete control
# [20] = Postemergence, 125 g ai/ha, 0 to 100 scale where 0 is no effect and 100 is complete control
# [21] = Postemergence, 500 g ai/ha, 0 to 100 scale, 0 is no effect, 100 is complete control
# [22] = Preemergence, 125 g ai/ha, 0 to 100 scale where 0 is no effect and 100 is complete control
# [23] = Preemergence, 500 g ai/ha, 0 to 100 scale, 0 no effect, 100 complete control
smiles,measurement,setting,value
Cc1ccc2ccc(C)c(-c3c(O)c(C)nn(C)c3=O)c2c1 [Compound 60],"Ryegrass, Italian plant response rating",[1]; [10],100
same,"Plant response rating, Ryegrass, Italian",[1]; [11],100
same,Kochia plant response rating,kochia (Kochia scoparia); [10],100
same,"Plant response rating, Kochia",kochia (Kochia scoparia); [11],80
same,"Foxtail, Giant plant response rating",[2]; [10],90
same,"Plant response rating, Foxtail, Giant",[2]; [11],90
same,Ragweed plant response rating,[3]; [10],100
same,"Plant response rating, Ragweed",[3]; [11],100
same,Wheat plant response rating,[4]; 1000 g ai/ha,70
same,Corn plant response rating,corn (Zea mays); 1000 g ai/ha,50
same,"Ryegrass, Italian plant response rating",[5]; [12],90
same,"Plant response rating, Ryegrass, Italian",[5]; [13],95
same,"Plant response rating, Ryegrass, Italian",[5]; [14],95
same,"Plant response rating, Ryegrass, Italian",[5]; [15],90
same,"Plant response rating, Ryegrass, Italian",[5]; [16],95
same,"Plant response rating, Ryegrass, Italian",[5]; [17],95
same,"Ryegrass, Italian plant response rating",[5]; [18],95
same,"Ryegrass, Italian plant response rating",[5]; [19],90
same,Soybean plant response rating,soybean (Glycine max); [12],15
same,"Plant response rating, Soybean",soybean (Glycine max); [13],40
same,"Plant response rating, Soybean",soybean (Glycine max); [14],50
same,"Plant response rating, Soybean",soybean (Glycine max); [15],0
same,"Plant response rating, Soybean",soybean (Glycine max); [16],45
same,"Plant response rating, Soybean",soybean (Glycine max); [17],65
same,Soybean plant response rating,soybean (Glycine max); [18],75
same,Soybean plant response rating,soybean (Glycine max); [19],20
same,Ragweed plant response rating,[6]; [12],85
same,"Plant response rating, Ragweed",[6]; [13],98
same,"Plant response rating, Ragweed",[6]; [14],100
same,"Plant response rating, Ragweed",[6]; [15],80
same,"Plant response rating, Ragweed",[6]; [16],90
same,"Plant response rating, Ragweed",[6]; [17],95
same,Ragweed plant response rating,[6]; [18],95
same,Ragweed plant response rating,[6]; [19],90
same,Galium plant response rating,[7]; [12],100
same,"Plant response rating, Galium",[7]; [13],100
same,"Plant response rating, Galium",[7]; [14],100
same,"Plant response rating, Galium",[7]; [15],90
same,"Plant response rating, Galium",[7]; [16],95
same,"Plant response rating, Galium",[7]; [17],98
same,Galium plant response rating,[7]; [18],100
same,Galium plant response rating,[7]; [19],100
same,Blackgrass plant response rating,[8]; 1000 g ai/ha,90
same,Galium plant response rating,[9]; 1000 g ai/ha,100
Cc1nn(C)c(=O)c(-c2c(C)sc3ccccc23)c1O [Compound 65],"Plant response rating, Ryegrass, Italian",[1]; [20],90
same,"Ryegrass, Italian plant response rating",[1]; [21],100
same,"Ryegrass, Italian plant response rating",[1]; [22],90
same,"Plant response rating, Ryegrass, Italian",[1]; [23],100
same,"Plant response rating, Kochia",kochia (Kochia scoparia); [20],90
same,Kochia plant response rating,kochia (Kochia scoparia); [21],90
same,Kochia plant response rating,kochia (Kochia scoparia); [22],60
same,"Plant response rating, Kochia",kochia (Kochia scoparia); [23],90
same,"Plant response rating, Foxtail, Giant",[2]; [20],20
same,"Foxtail, Giant plant response rating",[2]; [21],90
same,"Foxtail, Giant plant response rating",[2]; [22],60
same,"Plant response rating, Foxtail, Giant",[2]; [23],90
same,"Plant response rating, Ragweed",[3]; [20],50
same,Ragweed plant response rating,[3]; [21],90
same,Ragweed plant response rating,[3]; [22],70
same,"Plant response rating, Ragweed",[3]; [23],80
same,"Plant response rating, Wheat",[4],0
same,Wheat plant response rating,[4]; 500 g ai/ha,0
same,"Plant response rating, Corn",corn (Zea mays),0
same,Corn plant response rating,corn (Zea mays); 500 g ai/ha,0
same,"Ryegrass, Italian plant response rating",[5]; [12],65
same,"Plant response rating, Ryegrass, Italian",[5]; [13],85
same,"Plant response rating, Ryegrass, Italian",[5]; [14],85
same,"Ryegrass, Italian plant response rating",[5]; [19],80
same,Soybean plant response rating,soybean (Glycine max); [12],5
same,"Plant response rating, Soybean",soybean (Glycine max); [13],5
same,"Plant response rating, Soybean",soybean (Glycine max); [14],10
same,Soybean plant response rating,soybean (Glycine max); [19],5
same,Ragweed plant response rating,[6]; [12],55
same,"Plant response rating, Ragweed",[6]; [13],80
same,"Plant response rating, Ragweed",[6]; [14],90
same,Ragweed plant response rating,[6]; [19],85
same,Galium plant response rating,[7]; [12],85
same,"Plant response rating, Galium",[7]; [13],90
same,"Plant response rating, Galium",[7]; [14],90
same,Galium plant response rating,[7]; [19],85
same,"Plant response rating, Blackgrass",[8],20
same,Blackgrass plant response rating,[8]; 500 g ai/ha,70
same,"Plant response rating, Galium",[9],90
same,Galium plant response rating,[9]; 500 g ai/ha,100
Cc1cc(C)c2sc(C)c(-c3c(OC(=O)OC(C)C)c(C)nn(C)c3=O)c2c1 [Compound 67],"Plant response rating, Ryegrass, Italian",[1]; [20],70
same,"Ryegrass, Italian plant response rating",[1]; [21],90
same,"Ryegrass, Italian plant response rating",[1]; [22],90
same,"Plant response rating, Ryegrass, Italian",[1]; [23],100
same,"Plant response rating, Kochia",kochia (Kochia scoparia); [20],20
same,Kochia plant response rating,kochia (Kochia scoparia); [21],30
same,Kochia plant response rating,kochia (Kochia scoparia); [22],20
same,"Plant response rating, Kochia",kochia (Kochia scoparia); [23],20
same,"Plant response rating, Foxtail, Giant",[2]; [20],80
same,"Foxtail, Giant plant response rating",[2]; [21],90
same,"Foxtail, Giant plant response rating",[2]; [22],80
same,"Plant response rating, Foxtail, Giant",[2]; [23],100
same,"Plant response rating, Ragweed",[3]; [20],50
same,Ragweed plant response rating,[3]; [21],70
same,Ragweed plant response rating,[3]; [22],80
same,"Plant response rating, Ragweed",[3]; [23],80
same,"Plant response rating, Wheat",[4],0
same,Wheat plant response rating,[4]; 500 g ai/ha,0
same,"Plant response rating, Corn",corn (Zea mays),0
same,Corn plant response rating,corn (Zea mays); 500 g ai/ha,0
same,"Ryegrass, Italian plant response rating",[5]; [12],80
same,"Plant response rating, Ryegrass, Italian",[5]; [13],85
same,"Plant response rating, Ryegrass, Italian",[5]; [14],85
same,"Plant response rating, Ryegrass, Italian",[5]; [15],30
same,"Plant response rating, Ryegrass, Italian",[5]; [16],40
same,"Plant response rating, Ryegrass, Italian",[5]; [17],85
same,"Ryegrass, Italian plant response rating",[5]; [18],90
same,"Ryegrass, Italian plant response rating",[5]; [19],80
same,Soybean plant response rating,soybean (Glycine max); [12],5
same,"Plant response rating, Soybean",soybean (Glycine max); [13],5
same,"Plant response rating, Soybean",soybean (Glycine max); [14],10
same,"Plant response rating, Soybean",soybean (Glycine max); [15],0
same,"Plant response rating, Soybean",soybean (Glycine max); [16],0
same,"Plant response rating, Soybean",soybean (Glycine max); [17],0
same,Soybean plant response rating,soybean (Glycine max); [18],0
same,Soybean plant response rating,soybean (Glycine max); [19],5
same,Ragweed plant response rating,[6]; [12],70
same,"Plant response rating, Ragweed",[6]; [13],98
same,"Plant response rating, Ragweed",[6]; [14],95
same,"Plant response rating, Ragweed",[6]; [15],60
same,"Plant response rating, Ragweed",[6]; [16],85
same,"Plant response rating, Ragweed",[6]; [17],100
same,Ragweed plant response rating,[6]; [18],98
same,Ragweed plant response rating,[6]; [19],75
same,Galium plant response rating,[7]; [12],90
same,"Plant response rating, Galium",[7]; [13],95
same,"Plant response rating, Galium",[7]; [14],90
same,"Plant response rating, Galium",[7]; [15],70
same,"Plant response rating, Galium",[7]; [16],90
same,"Plant response rating, Galium",[7]; [17],90
same,Galium plant response rating,[7]; [18],90
same,Galium plant response rating,[7]; [19],95
same,"Plant response rating, Blackgrass",[8],70
same,Blackgrass plant response rating,[8]; 500 g ai/ha,80
same,"Plant response rating, Galium",[9],80
same,Galium plant response rating,[9]; 500 g ai/ha,90
